Laboratory results as given in ChEMBL document CHEMBL3271942, “(Vinylaryloxy)acetic acids. A new class of diuretic agents. 2. (4-(3-Oxo-1-alkenyl)phenoxy)acetic acids” (1976).

Experiments:
[1] = tested on: Canis familiaris; assay: Diuretic activity in mongrel dog assessed as excretion of sodium ion at 10 mg/kg, iv measured after 15 and 45 mins (reference value: 13 to 54 uequiv/min); format: functional, Canis lupus familiaris, Urine
[2] = tested on: Canis familiaris; assay: Diuretic activity in mongrel dog assessed as excretion of potassium ion at 10 mg/kg, iv measured after 15 and 45 mins (reference value: 16 to 37 uequiv/min); format: functional, Canis lupus familiaris, Urine
[3] = tested on: Canis familiaris; assay: Diuretic activity in mongrel dog assessed as excretion of chloride ion at 10 mg/kg, iv measured after 15 and 45 mins (reference value: 4 to 64 uequiv/min); format: functional, Canis lupus familiaris, Urine
[4] = tested on: Canis familiaris; assay: Diuretic activity in mongrel dog assessed as urine volume at 10 mg/kg, iv measured after 15 and 45 mins (reference value: 1 to 2 ml/min); format: functional, Canis lupus familiaris
[5] = tested on: Canis familiaris; assay: Diuretic activity in mongrel dog assessed as excretion of potassium ion at 5 mg/kg, iv measured after 15 and 45 mins (reference value: 15 to 55 uequiv/min); format: functional, Canis lupus familiaris, Urine
[6] = tested on: Canis familiaris; assay: Diuretic activity in mongrel dog assessed as excretion of sodium ion at 5 mg/kg, iv measured after 15 and 45 mins (reference value: 5 to 99 uequiv/min); format: functional, Canis lupus familiaris, Urine
[7] = tested on: Canis familiaris; assay: Diuretic activity in mongrel dog assessed as urine volume at 5 mg/kg, iv measured after 15 and 45 mins (reference value: 1 to 2 ml/min); format: functional, Canis lupus familiaris
[8] = tested on: Canis familiaris; assay: Diuretic activity in mongrel dog assessed as excretion of chloride ion at 5 mg/kg, iv measured after 15 and 45 mins (reference value: 7 to 13 uequiv/min); format: functional, Canis lupus familiaris, Urine
[9] = tested on: Canis familiaris; assay: Diuretic activity in mongrel dog assessed as excretion of chloride ion at 0.1 mg/kg, iv measured after 15 and 45 mins (reference value: 14 to 48 uequiv/min); format: functional, Canis lupus familiaris, Urine
[10] = tested on: Canis familiaris; assay: Diuretic activity in mongrel dog assessed as excretion of sodium ion at 0.1 mg/kg, iv measured after 15 and 45 mins (reference value: 36 to 73 uequiv/min); format: functional, Canis lupus familiaris, Urine
[11] = tested on: Canis familiaris; assay: Diuretic activity in mongrel dog assessed as excretion of potassium ion at 0.1 mg/kg, iv measured after 15 and 45 mins (reference value: 14 to 35 uequiv/min); format: functional, Canis lupus familiaris, Urine
[12] = tested on: Canis familiaris; assay: Diuretic activity in mongrel dog assessed as urine volume at 0.1 mg/kg, iv measured after 15 and 45 mins (reference value: 1 to 3 ml/min); format: functional, Canis lupus familiaris
[13] = tested on: Canis familiaris; assay: Diuretic activity in mongrel dog assessed as excretion of sodium ion at 1 mg/kg, iv measured after 15 and 45 mins (reference value: 26 to 58 uequiv/min); format: functional, Canis lupus familiaris, Urine
[14] = tested on: Canis familiaris; assay: Diuretic activity in mongrel dog assessed as excretion of chloride ion at 1 mg/kg, iv measured after 15 and 45 mins (reference value: 10 to 26 uequiv/min); format: functional, Canis lupus familiaris, Urine
[15] = tested on: Canis familiaris; assay: Diuretic activity in mongrel dog assessed as excretion of potassium ion at 1 mg/kg, iv measured after 15 and 45 mins (reference value: 46 to 28 uequiv/min); format: functional, Canis lupus familiaris, Urine
[16] = tested on: Canis familiaris; assay: Diuretic activity in mongrel dog assessed as urine volume at 1 mg/kg, iv measured after 15 and 45 mins (reference value: 1 to 4 ml/min); format: functional, Canis lupus familiaris
[17] = tested on: Canis familiaris; assay: Diuretic activity in mongrel dog assessed as excretion of chloride ion per 6 hrs at 2 mg/kg, po (reference value: 2 mequiv/min); format: functional, Canis lupus familiaris, Urine
[18] = tested on: Canis familiaris; assay: Diuretic activity in mongrel dog assessed as excretion of sodium ion per 6 hrs at 2 mg/kg, po (reference value: 2 mequiv/min); format: functional, Canis lupus familiaris, Urine
[19] = tested on: Canis familiaris; assay: Diuretic activity in mongrel dog assessed as urine volume per 6 hrs at 1 mg/kg, po (reference value: 180 ml); format: functional, Canis lupus familiaris
[20] = tested on: Canis familiaris; assay: Diuretic activity in mongrel dog assessed as excretion of potassium ion per 6 hrs at 1 mg/kg, po (reference value: 1 mequiv/min); format: functional, Canis lupus familiaris, Urine
[21] = tested on: Canis familiaris; assay: Diuretic activity in mongrel dog assessed as excretion of potassium ion per 6 hrs at 2 mg/kg, po (reference value: 1 mequiv/min); format: functional, Canis lupus familiaris, Urine
[22] = tested on: Canis familiaris; assay: Diuretic activity in mongrel dog assessed as urine volume per 6 hrs at 2 mg/kg, po (reference value: 180 ml); format: functional, Canis lupus familiaris
[23] = tested on: Canis familiaris; assay: Diuretic activity in mongrel dog assessed as excretion of sodium ion per 6 hrs at 1 mg/kg, po (reference value: 2 mequiv/min); format: functional, Canis lupus familiaris, Urine
[24] = tested on: Canis familiaris; assay: Diuretic activity in mongrel dog assessed as excretion of chloride ion per 6 hrs at 1 mg/kg, po (reference value: 2 mequiv/min); format: functional, Canis lupus familiaris, Urine
[25] = tested on: Canis familiaris; assay: Diuretic activity in mongrel dog assessed as excretion of chloride ion at 25 mg/kg, iv measured after 15 and 45 mins (reference value: 6 uequiv/min); format: functional, Canis lupus familiaris, Urine
[26] = tested on: Canis familiaris; assay: Diuretic activity in mongrel dog assessed as excretion of sodium ion at 25 mg/kg, iv measured after 15 and 45 mins (reference value: 42 uequiv/min); format: functional, Canis lupus familiaris, Urine
[27] = tested on: Canis familiaris; assay: Diuretic activity in mongrel dog assessed as excretion of potassium ion at 25 mg/kg, iv measured after 15 and 45 mins (reference value: 42 uequiv/min); format: functional, Canis lupus familiaris, Urine
[28] = tested on: Canis familiaris; assay: Diuretic activity in mongrel dog assessed as urine volume at 25 mg/kg, iv measured after 15 and 45 mins (reference value: 5 ml/min); format: functional, Canis lupus familiaris

SMILES | Activity [1] | Activity [2] | Activity [3] | Activity [4] | Activity [5] | Activity [6] | Activity [7] | Activity [8] | other results
CC(=O)/C=C/c1ccc(OCC(=O)O)cc1 | 91 uEq/min | 50 uEq/min | 55 uEq/min | 5 mL/min | – | – | – | – | –
CC(=O)/C=C/c1ccc(OCC(=O)O)c(Cl)c1Cl | – | – | – | – | 76 uEq/min | 911 uEq/min | 8 mL/min | 1078 uEq/min | –
COc1cc(/C=C/C(C)=O)ccc1OCC(=O)O | – | – | – | – | 36 uEq/min | 13 uEq/min | 1 mL/min | 27 uEq/min | –
O=C(O)COc1ccc(/C=C2\CCC2=O)c(Cl)c1Cl | 833 uEq/min | 93 uEq/min | 822 uEq/min | 8 mL/min | – | – | – | – | Activity [9]: 408 uEq/min; Activity [10]: 393 uEq/min; Activity [11]: 89 uEq/min; Activity [12]: 9 mL/min
O=C(O)COc1ccc(/C=C2\CCCC2=O)c(Cl)c1Cl | – | – | – | – | – | – | – | – | Activity [13]: 298 uEq/min; Activity [14]: 330 uEq/min; Activity [15]: 74 uEq/min; Activity [16]: 4 mL/min
CC(=O)/C(C)=C/c1ccc(OCC(=O)O)c(Cl)c1Cl | – | – | – | – | 132 uEq/min | 1096 uEq/min | 10 mL/min | 1140 uEq/min | Activity [17]: 21 milliequivalent; Activity [18]: 16 milliequivalent; Activity [19]: 422 mL; Activity [20]: 5 milliequivalent; Activity [21]: 3 milliequivalent; Activity [22]: 506 mL; Activity [23]: 9 milliequivalent; Activity [24]: 9 milliequivalent
CCC(=O)/C(C)=C/c1ccc(OCC(=O)O)c(Cl)c1Cl | 79 uEq/min | 42 uEq/min | 67 uEq/min | 2 mL/min | – | – | – | – | –
CC(=O)/C=C/c1ccc(OCC(=O)O)cc1Cl | 265 uEq/min | 79 uEq/min | 258 uEq/min | 3 mL/min | – | – | – | – | –
CCC(=O)/C=C/c1ccc(OCC(=O)O)c(Cl)c1Cl | 973 uEq/min | 118 uEq/min | 1089 uEq/min | 8 mL/min | – | – | – | – | –
C/C(C=O)=C\c1ccc(OCC(=O)O)c(Cl)c1Cl | – | – | – | – | 51 uEq/min | 140 uEq/min | 3 mL/min | 130 uEq/min | Activity [25]: 542 uEq/min; Activity [26]: 449 uEq/min; Activity [27]: 86 uEq/min; Activity [28]: 5 mL/min
O=C(O)COc1ccc(/C=C2\CCCCC2=O)c(Cl)c1Cl | – | – | – | – | 119 uEq/min | 1306 uEq/min | 12 mL/min | 1340 uEq/min | –
CC(=O)C(=Cc1ccc(OCC(=O)O)c(Cl)c1Cl)C(C)=O | – | – | – | – | – | – | – | – | Activity [10]: 984 uEq/min; Activity [11]: 87 uEq/min; Activity [15]: 104 uEq/min; Activity [12]: 9 mL/min; Activity [16]: 11 mL/min
C=C(CC)C(=O)c1ccc(OCC(=O)O)c(Cl)c1Cl [ETHACRYNIC ACID] | 2989 uEq/min | 194 uEq/min | 3324 uEq/min | 22 mL/min | – | – | – | – | Activity [13]: 188 uEq/min; Activity [14]: 244 uEq/min; Activity [19]: 560 mL; Activity [20]: 5 milliequivalent; Activity [23]: 21 milliequivalent; Activity [15]: 52 uEq/min; Activity [24]: 26 milliequivalent; Activity [16]: 6 mL/min
NS(=O)(=O)c1cc(C(=O)O)c(NCc2ccco2)cc1Cl [FUROSEMIDE] | – | – | – | – | – | – | – | – | Activity [19]: 624 mL; Activity [20]: 4 milliequivalent; Activity [23]: 19 milliequivalent; Activity [24]: 18 milliequivalent
